{
  "source": "ChEMBL document CHEMBL4342498",
  "about": "“Design and Discovery of an Orally Efficacious Spiroindolinone-Based Tankyrase Inhibitor for the Treatment of Colon Cancer” (J Med Chem, 2020)",
  "key": {"COLO 320DM": {"system": "COLO 320DM", "experiment": "Antitumor activity against human COLO320DM cells xenografted in Prkdc-NOD-SCID CB17 mouse assessed as tumor growth inhibition", "type": "functional"}, "RKO": {"system": "RKO", "experiment": "Antiproliferative activity against human RKO cells assessed inhibition of cell growth measured after 5 days by MTT assay", "type": "functional", "details": "120 h"}, "Cytochrome P450 1A2": {"target": "T1, Cytochrome P450 1A2 (Homo sapiens, UniProt P05177)", "T1 sequence (P05177 whole entry)": "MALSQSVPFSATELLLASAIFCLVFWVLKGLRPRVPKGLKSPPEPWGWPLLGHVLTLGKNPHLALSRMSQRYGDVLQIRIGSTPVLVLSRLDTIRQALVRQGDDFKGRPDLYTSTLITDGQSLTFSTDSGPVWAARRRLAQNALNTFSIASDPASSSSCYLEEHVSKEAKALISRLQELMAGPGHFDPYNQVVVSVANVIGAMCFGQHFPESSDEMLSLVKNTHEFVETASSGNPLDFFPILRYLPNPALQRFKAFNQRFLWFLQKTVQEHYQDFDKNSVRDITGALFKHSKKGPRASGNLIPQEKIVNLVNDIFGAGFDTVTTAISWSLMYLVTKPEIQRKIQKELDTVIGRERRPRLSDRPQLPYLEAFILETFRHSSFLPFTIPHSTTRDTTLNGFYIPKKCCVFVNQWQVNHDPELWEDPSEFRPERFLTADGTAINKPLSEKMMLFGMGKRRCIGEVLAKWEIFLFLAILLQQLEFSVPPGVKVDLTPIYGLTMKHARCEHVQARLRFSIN", "experiment": "Inhibition of CYP1A2 in human liver microsomes using phenacetin as substrate preincubated for 5 mins followed by NADPH addition and measured for 10 to 30 mins by LC-MS/MS analysis", "type": "ADME"}, "Cytochrome P450 2C9": {"target": "Cytochrome P450 2C9 (Homo sapiens, UniProt P11712)", "sequence (P11712 whole entry)": "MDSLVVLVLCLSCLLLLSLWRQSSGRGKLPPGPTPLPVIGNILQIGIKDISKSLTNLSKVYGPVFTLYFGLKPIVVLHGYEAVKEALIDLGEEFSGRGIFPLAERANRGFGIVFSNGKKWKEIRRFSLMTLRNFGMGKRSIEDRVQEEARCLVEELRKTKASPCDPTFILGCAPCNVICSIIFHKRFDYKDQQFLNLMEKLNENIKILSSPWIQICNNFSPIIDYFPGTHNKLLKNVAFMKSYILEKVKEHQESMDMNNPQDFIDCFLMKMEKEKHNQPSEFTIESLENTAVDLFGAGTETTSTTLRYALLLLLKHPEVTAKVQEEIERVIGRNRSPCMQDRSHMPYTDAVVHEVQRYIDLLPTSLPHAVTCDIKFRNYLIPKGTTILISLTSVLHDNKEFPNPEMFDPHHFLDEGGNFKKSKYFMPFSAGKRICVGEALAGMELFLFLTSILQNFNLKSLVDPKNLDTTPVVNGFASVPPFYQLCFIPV", "experiment": "Inhibition of CYP2C9 in human liver microsomes using diclofenac as substrate preincubated for 5 mins followed by NADPH addition and measured for 10 to 30 mins by LC-MS/MS analysis", "type": "ADME"}},
  "note": "The source made the active and inactive calls. The calls are words filed in the database; no cut-off is given here.",
  "data": [
    {"smiles": "CN1CCN(c2cc(F)c3c(c2)N(C)C(=O)C32CCN(c3nc4c(c(=O)[nH]3)CCCN4C)CC2)CC1", "values": [
      {"measurement": "TGI", "setting": "COLO 320DM", "result": "inactive"}
    ]},
    {"smiles": "C[C@@H]1CN(c2cc(F)c3c(c2)N(C)C(=O)C32CCN(c3nc4c(c(=O)[nH]3)CCCN4C)CC2)C[C@H](C)O1", "values": [
      {"measurement": "GI50", "setting": "RKO", "result": "> 10", "unit": "µM"},
      {"measurement": "IC50", "setting": "Cytochrome P450 1A2", "result": "> 10", "unit": "µM"},
      {"measurement": "IC50", "setting": "Cytochrome P450 2C9", "result": "> 10", "unit": "µM"}
    ]}
  ]
}
